# Experimental data as given in patent publication US20220387440A1, “FORMULATIONS FOR USE IN THE PREVENTION AND/OR TREATMENT OF PERIPHERAL NEUROPATHY AND ITS ASSOCIATED DISEASES” (priority 2019, published 2022).
# “And” between values parts separate entries of the source, which are not always exact repeats. Equal values may be shown once. Read-outs that look alike come from different tables or passages of the source.
# Key:
# [1] = test system: rat dorsal root ganglion neurons (DRG); conditions: for Score of neuroprotection, Extremity count / Score of neuroprotection, Total length: glucose-treated DRGs
# Description: In vitro injury was induced in DRGs culture by glucose treatment (150 mM) for 48 hours. […] By using HCS technology, cell parameters associated with neurite outgrowth—an indication of pre-lethal cytotoxic effects—were measured at single cell level, which allows high-throughput screening.
# (§1) Primary cultures of dorsal rat ganglion neurons were prepared from the dorsal ganglions of neonatal Sprague-Dawley rats at day 8. […] Cells were maintained in neurobasal medium supplemented with B-27 component for 8 days at 37° C. in a humidified 5% CO2 atmosphere.
# Beta-Ill tubulin staining: Beta-Ill tubulin staining was determined by Immunohistochemistry (IHQ). Cells were washed with PBS (Sigma Aldrich # Cat.D8537) and fixed with methanol for 10 minutes. After the fixation step the samples were washed three times with PBS and permeabilized with PBS+0.3% triton for 10 minutes. The samples were then blocked with PBS+Bovine Serum Albumine (BSA) for 30 minutes and finally anti-beta tubulin Ill antibody (Abcam # Cat.ab7751) were added at 1/1000 in PBS+0.5% BSA for 60 minutes at room temperature. […] The samples were then washed three times and measured under automated fluorescent microscope. To investigate the role of neurite extension, two geometric patterns were mainly employed in this study: total neurite length (total length of the path from a neuron body), and number of extremities (number of terminating neurite segments per neuron).
# In order to acquire enough cells for the analysis, nine fields per well were imaged. The 20× objective was used to collect images for the distinct fluorescence channels. Dyes were excited and their fluorescence was monitored at the excitation and emission wavelengths with appropriate filter settings. In the setting up of the procedure, exposure times were adjusted in order to avoid overlapping emission between different probes. The collected images were analyzed using a module that allows the simultaneous quantification of subcellular structures, which are stained by different molecular probes to measure the fluorescence intensity associated with predefined nuclear and cytoplasmic compartments.
# [2] = test system: rat dorsal root ganglion neurons (DRG); assay: Cell number by hoechst 33342 nucleic acid stain (HCS), glucose toxicity; conditions: for Score of neuroprotection, HOECHST: glucose-treated DRGs
# Source text: This dye allows a sensitive cell number determination by fluorescence microscopy.
# [3] = test system: rat dorsal root ganglion neurons (DRG); assay: WST-8 assay of viable cells, glucose toxicity; conditions: for Score of neuroprotection, WST8: glucose-treated DRGs
# Description: as §1
# 2. WST-8 assay: For detection of viable cells, 10 μl of CCK-8 reagent (WST-8) were added to each well and the plate was incubated at 37° C. After 1 hour, absorbance was measured at 450 nm using the Synergy II microplate reader.
# [4] = diluted with sodium chloride 0.9%; cited from earlier work
# peripheral nerves = conditions: injected into the spinal cord compartment of cerebral spinal fluid; cited from earlier work
# eye = conditions: higher concentrations, accidental use instead of Trypan Blue during cataract surgery; cited from earlier work
# glucose-treated DRGs = assay: Degree of neuroprotection, sum of scores of all HCS parameters; conditions: for Total score of neuroprotection (sum of individual scores): glucose-treated DRGs; for Neuroprotection degree: prior to assault with 150 mM glucose
# Source text: For all the studied parameters, a variation of at least 20% in fluorescence intensity or in the corresponding morphological parameter in relation to untreated cultures was considered. […] From this calculation, a neuroprotective scale was established: high (>6), moderate (4-5), low (1-3), and no neuroprotection (0).
# In order to compare the degree of neuroprotection of the tested compound at different concentrations, different scores were created according to the level of the alteration (the group formation criterion is described in material and methods section) and then a value was assigned to each parameter. The sum of all the values for each parameter and concentration tested was calculated, and four distinct groups were created according to their level of neuroprotection.
# [5] = Sprague-Dawley, rat, 48 h, 150 mM
# [6] = MB 0.0005 uM (with glu 150 mM, 48 h)
# [7] = MB 0.0005 uM (with glu 150 mM, 48 h), listed as MB
# [8] = MB 0.005 uM (with glu 150 mM, 48 h)
# [9] = MB 0.005 uM (with glu 150 mM, 48 h), listed as MB
# [10] = MB 0.05 uM (with glu 150 mM, 48 h)
# [11] = MB 0.05 uM (with glu 150 mM, 48 h), listed as MB
# [12] = MB 0.5 uM (with glu 150 mM, 48 h)
# [13] = MB 0.5 uM (with glu 150 mM, 48 h), listed as MB
# [14] = MB 5 uM (with glu 150 mM, 48 h)
# [15] = MB 5 uM (with glu 150 mM, 48 h), listed as MB
# [16] = MB 50 uM (with glu 150 mM, 48 h)
# [17] = MB 50 uM (with glu 150 mM, 48 h), listed as MB
smiles,measurement,setting,value
"O=C[C@H](O)[C@@H](O)[C@H](O)[C@H](O)CO [Glucose, glucose]",Extremity count/neuron (single replicates),"[1]; Glucose (Alone) 150 mM, 48 h",0.82 and 0.9862 and 0.7818
same,"Extremity count/neuron, Mean % of control","[1]; Glucose (Alone) 150 mM, 48 h",69.57 % of control
same,"Extremity count/neuron, mean","[1]; Glucose (Alone) 150 mM, 48 h",0.8627
same,Total length per neuron (single replicates),"[1]; Glucose (Alone) 150 mM, 48 h",42.95 and 52.97 and 37.56
same,"Total length per neuron, Mean % of control","[1]; Glucose (Alone) 150 mM, 48 h",62.89 % of control
same,"Total length per neuron, mean","[1]; Glucose (Alone) 150 mM, 48 h",44.49
same,decrease in neurite extremity count compared to untreated cells,[1]; [5],31%
same,decrease in neurite total length compared to untreated cells,[1]; [5],38%
same,Cell viability by Hoechst (single replicates),"[2]; Glucose (Alone) 150 mM, 48 h",125 and 104 and 81
same,"Cell viability by Hoechst, Mean % of control","[2]; Glucose (Alone) 150 mM, 48 h",46.76 % of control
same,"Cell viability by Hoechst, mean","[2]; Glucose (Alone) 150 mM, 48 h",103.3
same,mortality in neurons,[2]; [5],54%
same,viability reduction in DRGs measured by WST8,"[3]; glucose 150 mM, 48 h",22%
"CN(C)c1ccc2nc3ccc(N(C)C)cc3[s+]c2c1 [methylene blue, 3,7-bis(dimethylamino) phenothiazin-5-ium chloride]","Score of neuroprotection, Extremity count",[1]; 0.0005 μM,0 (no neuroprotection or variation lower than 20%)
same,"Score of neuroprotection, Total length",[1]; 0.0005 μM,0 (no neuroprotection or variation lower than 20%)
same,"Score of neuroprotection, Extremity count",[1]; 0.005 μM,0 (no neuroprotection or variation lower than 20%)
same,"Score of neuroprotection, Total length",[1]; 0.005 μM,0 (no neuroprotection or variation lower than 20%)
same,re-establishment of neurite outgrowth affected by glucose,[1]; 0.05 μM with 150 mM glucose,could re-establish the affected neurite outgrowth
same,"Score of neuroprotection, Extremity count",[1]; 0.05 μM,1 (variation 20-40%)
same,"Score of neuroprotection, Total length",[1]; 0.05 μM,1 (variation 20-40%)
same,"Score of neuroprotection, Extremity count",[1]; 0.5 μM,0 (no neuroprotection or variation lower than 20%)
same,"Score of neuroprotection, Total length",[1]; 0.5 μM,0 (no neuroprotection or variation lower than 20%)
same,"Score of neuroprotection, Extremity count",[1]; 5 μM,−1 (variation 20-40%)
same,"Score of neuroprotection, Total length",[1]; 5 μM,0 (no neuroprotection or variation lower than 20%)
same,"Score of neuroprotection, Extremity count",[1]; 50 μM,−3 (variation 40-60%)
same,"Score of neuroprotection, Total length",[1]; 50 μM,−1 (variation 20-40%)
same,"Extremity count/neuron, Mean % of control",[1]; [6],77.9 % of control
same,"Extremity count/neuron, mean",[1]; [6],0.966
same,"Total length per neuron, Mean % of control",[1]; [6],70.88 % of control
same,"Total length per neuron, mean",[1]; [6],50.15
same,Extremity count/neuron (single replicates),[1]; [7],1.058 and 0.8613 and 0.9784
same,Total length per neuron (single replicates),[1]; [7],50.96 and 40.13 and 59.36
same,"Extremity count/neuron, Mean % of control",[1]; [8],82.24 % of control
same,"Extremity count/neuron, mean",[1]; [8],1.02
same,"Total length per neuron, Mean % of control",[1]; [8],74.22 % of control
same,"Total length per neuron, mean",[1]; [8],52.51
same,Extremity count/neuron (single replicates),[1]; [9],0.8645 and 1.19 and 1.005
same,Total length per neuron (single replicates),[1]; [9],45.83 and 61.19 and 50.5
same,"Extremity count/neuron, Mean % of control",[1]; [10],95.29 % of control
same,"Extremity count/neuron, mean",[1]; [10],1.182
same,"Total length per neuron, Mean % of control",[1]; [10],86.27 % of control
same,"Total length per neuron, mean",[1]; [10],61.03
same,Extremity count/neuron (single replicates),[1]; [11],1.345 and 1.059 and 1.141
same,Total length per neuron (single replicates),[1]; [11],62.91 and 50.39 and 69.8
same,"Extremity count/neuron, Mean % of control",[1]; [12],61.57 % of control
same,"Extremity count/neuron, mean",[1]; [12],0.7634
same,"Total length per neuron, Mean % of control",[1]; [12],56.15 % of control
same,"Total length per neuron, mean",[1]; [12],39.72
same,Extremity count/neuron (single replicates),[1]; [13],0.6567 and 0.8552 and 0.7784
same,Total length per neuron (single replicates),[1]; [13],37.34 and 47.77 and 34.07
same,"Extremity count/neuron, Mean % of control",[1]; [14],52.97 % of control
same,"Extremity count/neuron, mean",[1]; [14],0.6568
same,"Total length per neuron, Mean % of control",[1]; [14],60.36 % of control
same,"Total length per neuron, mean",[1]; [14],42.7
same,Extremity count/neuron (single replicates),[1]; [15],0.8559 and 0.5369 and 0.5777
same,Total length per neuron (single replicates),[1]; [15],53.61 and 42.2 and 32.3
same,"Extremity count/neuron, Mean % of control",[1]; [16],20.98 % of control
same,"Extremity count/neuron, mean",[1]; [16],0.2601
same,"Total length per neuron, Mean % of control",[1]; [16],22.74 % of control
same,"Total length per neuron, mean",[1]; [16],16.09
same,Extremity count/neuron (single replicates),[1]; [17],0.2833 and 0.2345 and 0.2625
same,Total length per neuron (single replicates),[1]; [17],18.18 and 12.64 and 17.45
same,"Score of neuroprotection, HOECHST",[2]; 0.0005 μM,3 (variation 60-100%)
same,"Score of neuroprotection, HOECHST",[2]; 0.005 μM,3 (variation 60-100%)
same,"Score of neuroprotection, HOECHST",[2]; 0.05 μM,3 (variation 60-100%)
same,"Score of neuroprotection, HOECHST",[2]; 0.5 μM,3 (variation 60-100%)
same,"Score of neuroprotection, HOECHST",[2]; 5 μM,1 (variation 20-40%)
same,"Score of neuroprotection, HOECHST",[2]; 50 μM,−1 (variation 20-40%)
same,"Cell viability by Hoechst, Mean % of control",[2]; [6],100.3 % of control
same,"Cell viability by Hoechst, mean",[2]; [6],221.7
same,Cell viability by Hoechst (single replicates),[2]; [7],187 and 236 and 242
same,"Cell viability by Hoechst, Mean % of control",[2]; [8],115.1 % of control
same,"Cell viability by Hoechst, mean",[2]; [8],254.3
same,Cell viability by Hoechst (single replicates),[2]; [9],255 and 290 and 218
same,"Cell viability by Hoechst, Mean % of control",[2]; [10],115.2 % of control
same,"Cell viability by Hoechst, mean",[2]; [10],254.7
same,Cell viability by Hoechst (single replicates),[2]; [11],270 and 253 and 241
same,"Cell viability by Hoechst, Mean % of control",[2]; [12],109.2 % of control
same,"Cell viability by Hoechst, mean",[2]; [12],241.3
same,Cell viability by Hoechst (single replicates),[2]; [13],234 and 217 and 273
same,"Cell viability by Hoechst, Mean % of control",[2]; [14],64.56 % of control
same,"Cell viability by Hoechst, mean",[2]; [14],142.7
same,Cell viability by Hoechst (single replicates),[2]; [15],168 and 103 and 157
same,"Cell viability by Hoechst, Mean % of control",[2]; [16],30.92 % of control
same,"Cell viability by Hoechst, mean",[2]; [16],68.33
same,Cell viability by Hoechst (single replicates),[2]; [17],74 and 69 and 62
same,prevention of glucose-induced mortality,"[2]; all concentrations (0.0005-5 μM), dose dependent, except 50 μM, co-incubation with 150 mM glucose",could prevent glucose-induced mortality
same,"Score of neuroprotection, WST8",[3]; 0.0005 μM,0 (no neuroprotection or variation lower than 20%)
same,"Score of neuroprotection, WST8",[3]; 0.005 μM,0 (no neuroprotection or variation lower than 20%)
same,"Score of neuroprotection, WST8",[3]; 0.05 μM,0 (no neuroprotection or variation lower than 20%)
same,"Score of neuroprotection, WST8",[3]; 0.5 μM,0 (no neuroprotection or variation lower than 20%)
same,"Score of neuroprotection, WST8",[3]; 5 μM,0 (no neuroprotection or variation lower than 20%)
same,viability (WST8) in addition to glucose,[3]; 50 μM with 150 mM glucose,decrease in viability
same,"Score of neuroprotection, WST8",[3]; 50 μM,−1 (variation 20-40%)
same,prevention of glucose induced viability decrease (WST8),[3]; 0.0005-50 μM with 150 mM glucose,could not prevent glucose induced viability decrease
same,compatibility with saline,[4],precipitation has been reported
same,nerve toxicity after injection into cerebral spinal fluid,peripheral nerves,massive peripheral nerves damage and resultant total paraplegia
same,ocular toxicity,eye,"irreversible blindness, corneal edema"
same,Total score of neuroprotection (sum of individual scores),glucose-treated DRGs; 0.0005 μM,3
same,Neuroprotection degree,glucose-treated DRGs; 0.0005 μM,low (low (1-3))
same,Total score of neuroprotection (sum of individual scores),glucose-treated DRGs; 0.005 μM,3
same,Neuroprotection degree,glucose-treated DRGs; 0.005 μM,low (low (1-3))
same,Total score of neuroprotection (sum of individual scores),glucose-treated DRGs; 0.05 μM,5
same,Neuroprotection degree,glucose-treated DRGs; 0.05 μM,moderate (moderate (4-5))
same,Total score of neuroprotection (sum of individual scores),glucose-treated DRGs; 0.5 μM,3
same,Neuroprotection degree,glucose-treated DRGs; 0.5 μM,low (low (1-3))
same,Total score of neuroprotection (sum of individual scores),glucose-treated DRGs; 5 μM,0
same,Neuroprotection degree,glucose-treated DRGs; 5 μM,no (no neuroprotection (0))
same,Total score of neuroprotection (sum of individual scores),glucose-treated DRGs; 50 μM,−6
same,"neuroprotection against glucose-induced DRGs toxicity, all parameters",glucose-treated DRGs; concentrations from 0.0005 μM to 0.5 μM,some neuroprotection
